# According to patent publication US6403593B1, “Triazole compounds and the use thereof” (Abbott Laboratories, priority 1995, dated 2002):
# pKi: −log10 of the molar value. Structures can show the parent of a compound that is named as a salt. Where two headings read alike, the source gives them in different places.
# Columns and labels:
# human D3 receptor = target: T1, human D3 receptor (Homo sapiens, UniProt P35462); test: D3 binding assay (125I-iodosulpiride); conditions: for Selectivity KiD2/KiD3: ratio of D2 (3H-spiperone) Ki to D3 (125I-sulpiride) Ki
# T1 construct: host or cells: CCL 1.3 mouse fibroblasts
# Description: Cloned human D3 receptor-expressing CCL 1.3 mouse fibroblasts obtained from Res. Biochemicals Internat. One Strathmore Rd., Natick, Mass. 01760-2418 USA, were used for the binding studies.
# The D3-expressing cells where grown in RPMI-1640 containing 10% fetal calf serum (GIBCO No. 041-32400 N); 100 U/ml penicillin and 0.2% streptomycin (GIBCO BRL, Gaithersburg, Md., USA). After 48h, the cells were washed with PBS and incubated with 0.05% trypsin-containing PBS for 5 min. Neutralization with medium was then carried out, and the cells were collected by centrifugation at 300×g. To lyze the cells, the pellet was briefly washed with lysis buffer (5 mM tris-HCl, pH 7.4, with 10% glycerol) and then incubated in a concentration of 10^7 cells/ml of lysis buffer at 4° C. for 30 min. The cells were centrifuged at 200×g for 10 min and the pellet was stored in liquid nitrogen.
# For the D3 receptor binding assay, the membranes were suspended in incubation buffer (50 mM tris-HCl, pH 7.4, with […], 5 mM KCl, 2 mM CaCl2, 2 mM MgCl2, 10 μM quinolinol, 0.1% ascorbic acid and 0.1% BSA) in a concentration of about 10^6 cells/250 μl of assay mixture and incubated at 30° C. with 0.1 nM ^125iodosulpiride in the presence and absence of test substance. The non-specific binding was determines using 10^−6 M spiperone.
# After 60 min, the free and the bound radioligand was separated by filtration through GF/B glasd fiber filters (Whatman, England) on a Skatron cell collector (Skatron, Lier, Norway), and the filters were washed with ice-cold tris-HCl buffer, pH 7.4. The radioactivity collected on the filters was quantified using a Packard 2200 CA ligand scintillation counter.
# The Ki values were determined by non-linear regression analysis using the LIGAND program.
# [1] = cloned human D3 receptor in CCL 1.3 mouse fibroblast membranes, 0.1 nM 125I-iodosulpiride, read-out: D3 125I-sulpiride Ki
# T1 sequence (P35462 whole entry): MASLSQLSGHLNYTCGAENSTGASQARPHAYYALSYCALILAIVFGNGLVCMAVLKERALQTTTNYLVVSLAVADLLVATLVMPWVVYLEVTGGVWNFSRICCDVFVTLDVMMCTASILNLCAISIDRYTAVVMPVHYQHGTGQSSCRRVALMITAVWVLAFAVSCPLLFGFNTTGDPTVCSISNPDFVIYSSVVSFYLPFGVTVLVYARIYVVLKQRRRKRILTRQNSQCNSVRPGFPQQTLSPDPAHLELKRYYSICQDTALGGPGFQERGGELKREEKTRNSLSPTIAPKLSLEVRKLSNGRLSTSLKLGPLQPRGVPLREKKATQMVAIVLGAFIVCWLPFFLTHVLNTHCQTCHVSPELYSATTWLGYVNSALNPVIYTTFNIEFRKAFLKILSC
smiles,measurement,setting,value
CC(=CCN1CCN(c2cc(C(F)(F)F)nc(C(C)(C)C)n2)CC1)CSc1nnc(N)n1C [Example 42],pKi,human D3 receptor; [1],7.87
same,Selectivity KiD2/KiD3,human D3 receptor,182
same,melting point,,67 to 72 °C
Cn1c(N)nnc1SCCCN1CCN(c2cccc(C(F)(F)F)c2)CC1 [Example 10],pKi,human D3 receptor,8.35
same,Selectivity KiD2/KiD3,human D3 receptor,49
Cn1c(N)nnc1SCCCN1CCN(c2cc(C(C)(C)C)cc(C(C)(C)C)c2)CC1 [Example 15],pKi,human D3 receptor; [1],8.06
same,Selectivity KiD2/KiD3,human D3 receptor,58
CNc1nnc(SCCCN2CCN(c3cccc(C(F)F)c3)CC2)n1C (as salt: hydrochloride) [Example 37],melting point,,234 to 235 °C
CCn1c(N)nnc1SCCCN1CCN(c2cccc(C(F)F)c2)CC1 [Example 24],pKi,human D3 receptor; [1],8.74
same,Selectivity KiD2/KiD3,human D3 receptor,67
Cc1cc(N2CCN(CCCSc3nnc(N)n3C)CC2)nc(-n2cccc2)n1 [Example 41],pKi,human D3 receptor; [1],8.09
same,Selectivity KiD2/KiD3,human D3 receptor,185
same,melting point,,65 to 67 °C
CNc1nnc(SCCCN2CCN(c3cccc(C(F)F)c3)CC2)n1C [Example 37],pKi,human D3 receptor; [1],8.77
same,Selectivity KiD2/KiD3,human D3 receptor,176
Cc1nnc(/C=C/CN2CCN(c3ccccc3)CC2)n1-c1ccccc1 [reference compound],affinity for the D3 receptor (in words),human D3 receptor; D3 binding assay,virtually no affinity
same,pKi,human D3 receptor; [1],5.39
